Measurements from paper PMC9926234, “Iterative computational design and crystallographic screening identifies potent inhibitors targeting the Nsp3 macrodomain of SARS-CoV-2” (Proceedings of the National Academy of Sciences of the …, 2023).
Several values for one entry are separate records, joined by “and”; a condition that tells them apart may be missing. Identical values can stand only once. Like-named read-outs stand apart in the source and are kept apart here.

Key:
SARS-CoV-2 NSP3 Mac1 [1] = molecular target: T1, SARS-CoV-2 NSP3 Mac1 (Severe acute respiratory syndrome coronavirus 2, UniProt P0DTD1); set-up: contains a conserved macrodomain enzyme (Mac1); Differential scanning fluorimetry of Mac1, maximum thermal upshift; settings: maximum shift over tested concentrations; binder
SARS-CoV-2 NSP3 Mac1 [2] = molecular target: T1, SARS-CoV-2 NSP3 Mac1; assay type: binding; settings: for Refined occupancy: ligand occupancy after refinement (phenix.refine); for HIT*: true hit = binding in crystallographic soaking or the HTRF-based binding assay
SARS-CoV-2 NSP3 Mac1 [3] = molecular target: T1, SARS-CoV-2 NSP3 Mac1; assay type: binding; set-up: contains a conserved macrodomain enzyme (Mac1); settings: for Spearman est (compound concentration vs apparent Tm): DSF dose responsiveness, 1 µM nsp3 mac1, adj p given; for DSF max dTma: maximal thermal upshift
In short: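 ΔTma values are thermal shifts relative to a co-located DMSO-only control, read with 5 µM Fluorescent Yellow dye. Each compound was tested in triplicate over seven concentrations (two-fold steps, top 1,000 or 100 μM). Spearman correlation of concentration versus ΔTma tested whether the shift was dose-responsive.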

MacroD2 = molecular target: T2, MacroD2 (Homo sapiens, UniProt A1Z1Q3); experiment: adapted HTRF-based peptide displacement assay (off-target); assay type: binding
T2 construct: MacroD2_HTRF; HTRF assay; pET22b(+); His6, TEV, Avi; made in house
T2 sequence (A1Z1Q3 with tags, fused parts or gaps): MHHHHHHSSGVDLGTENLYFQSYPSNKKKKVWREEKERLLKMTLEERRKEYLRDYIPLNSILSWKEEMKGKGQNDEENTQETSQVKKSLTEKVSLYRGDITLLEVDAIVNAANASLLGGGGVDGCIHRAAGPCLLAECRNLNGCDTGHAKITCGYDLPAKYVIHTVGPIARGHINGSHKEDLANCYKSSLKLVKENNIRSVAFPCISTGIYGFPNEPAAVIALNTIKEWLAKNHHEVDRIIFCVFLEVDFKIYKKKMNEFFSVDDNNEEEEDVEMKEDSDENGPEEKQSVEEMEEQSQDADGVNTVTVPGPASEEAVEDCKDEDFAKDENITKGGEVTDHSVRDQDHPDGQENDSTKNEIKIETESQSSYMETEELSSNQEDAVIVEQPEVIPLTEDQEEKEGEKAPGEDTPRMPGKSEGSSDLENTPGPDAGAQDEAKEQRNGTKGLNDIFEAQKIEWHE

TARG1 = molecular target: T3, TARG1 (Homo sapiens, UniProt Q9Y530); experiment: as above; assay type: binding
T3 construct: Targ1_HTRF; HTRF assay; pET22b(+); His6, TEV; 1-153; made in house
T3 sequence (Q9Y530 with tags, fused parts or gaps): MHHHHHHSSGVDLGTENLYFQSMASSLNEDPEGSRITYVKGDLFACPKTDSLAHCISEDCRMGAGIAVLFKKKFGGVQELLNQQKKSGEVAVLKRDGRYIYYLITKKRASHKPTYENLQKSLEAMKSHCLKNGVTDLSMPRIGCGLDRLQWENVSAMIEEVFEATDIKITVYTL

SARS-CoV-2 NSP3 Mac1 [4] = molecular target: T1, SARS-CoV-2 NSP3 Mac1; experiment: biochemical; assay type: binding; settings: for IC50: read-out: IC50; for Ki: read-out: Ki***
SARS-CoV-2 NSP3 Mac1 [5] = experiment: Overall hit call (binding in crystallographic soaking or the HTRF-based binding assay)
Source text: Supplement pnas.2212931120.sd01.xlsx, sheet "Compound Summary" | column: HIT*

[6] = PanDDA event map, 1 minus background density correction, crystal soaking of Mac1
[7] = ligand modeled from this dataset, compound concentration 100 mM, Echo dispense volume 40 or 80 nl
[8] = HTRF ADPr-peptide displacement from SARS-CoV-2 Mac1
[9] = Ki estimation from HTRF-derived IC50, Cheng-Prusoff, peptide 400nM, Kd 2.68µM
[10] = ligand modeled from this dataset, compound concentration 100 mM
[11] = PanDDA 1-BDC value of the event, crystal soak, compound concentration 100 mM, per dataset
[12] = crystal soak, compound concentration 100 mM, per dataset

Compound: CC1(C)CCC(C(=O)O)CN1C(=O)c1ncnc2[nH]ccc12 (centres unmarked) [F2804, FRESH00012962804]
- DSF max dTma (SARS-CoV-2 NSP3 Mac1 [1]): 0.62 °C

Compound: CC1(C(=O)O)CCN(C(=O)Cc2c[nH]c3nccc(Cl)c23)C1 (centres unmarked) [F4848, FRESH00014134848]
- DSF max dTma (SARS-CoV-2 NSP3 Mac1 [1]): 0.07 °C

Compound: Cc1noc(CC2CCCN(c3ncnc4[nH]c5cc(F)ccc5c34)C2)n1 (centres unmarked) [LL1_0005]
- 1-BDC (SARS-CoV-2 NSP3 Mac1 [2]; [6]): 0.11
- Refined occupancy (SARS-CoV-2 NSP3 Mac1 [2]; crystal soaking of Mac1): 22
- HIT* (SARS-CoV-2 NSP3 Mac1 [2]): Y
- DSF max dTma (SARS-CoV-2 NSP3 Mac1 [1]): 0.6 °C
- Spearman est (compound concentration vs apparent Tm) (SARS-CoV-2 NSP3 Mac1 [3]): 0.01
- DSF max dTma (SARS-CoV-2 NSP3 Mac1 [3]): 0.6 ˚C

Compound: O=C(O)CC1CN(c2ncnc3[nH]c4cc(F)ccc4c23)CCO1 (centres unmarked) [LL1_0014]
- displacement of the ADPr-conjugated peptide (off-target activity) (MacroD2; compound at 1 mM): 50%
- displacement of the ADPr-conjugated peptide (off-target activity) (TARG1; compound at 1 mM): 50%
- 1-BDC (SARS-CoV-2 NSP3 Mac1 [2]; [6]): 0.11
- Modeled? (SARS-CoV-2 NSP3 Mac1 [2]; [7]): TRUE
- Refined occupancy (SARS-CoV-2 NSP3 Mac1 [2]; crystal soaking of Mac1): 22
- HIT* (SARS-CoV-2 NSP3 Mac1 [2]): Y
- IC50 (SARS-CoV-2 NSP3 Mac1 [4]; [8]): 16 to 29 µM and 16.4 to 28.7 µM
- IC50 (SARS-CoV-2 NSP3 Mac1 [4]; HTRF): 16.4 µM and 28.7 µM
- Ki (SARS-CoV-2 NSP3 Mac1 [4]; [9]): 14.3 µM and 25 µM
- Spearman est (compound concentration vs apparent Tm) (SARS-CoV-2 NSP3 Mac1 [3]): 0.91
- DSF max dTma (SARS-CoV-2 NSP3 Mac1 [3]): 3.21 ˚C

Compound: O=c1[nH]nc(C2CCCN(c3ncnc4[nH]c5cc(F)ccc5c34)C2)o1 (centres unmarked) [LL1_0017]
- 1-BDC (PanDDA) (SARS-CoV-2 NSP3 Mac1 [2]; [6]): 0.09
- Modeled? (SARS-CoV-2 NSP3 Mac1 [2]; [10]): TRUE
- Refined occupancy (SARS-CoV-2 NSP3 Mac1 [2]; crystal soaking of Mac1): 18
- HIT* (SARS-CoV-2 NSP3 Mac1 [2]): Y
- DSF max dTma (SARS-CoV-2 NSP3 Mac1 [1]): 0.5 °C
- Spearman est (compound concentration vs apparent Tm) (SARS-CoV-2 NSP3 Mac1 [3]): 0.18
- DSF max dTma (SARS-CoV-2 NSP3 Mac1 [3]): 0.5 ˚C

Compound: O=C(O)CCC1CCCN(c2ncnc3[nH]c4cc(F)ccc4c23)C1 (centres unmarked) [LL1_0018]
- 1-BDC (PanDDA) (SARS-CoV-2 NSP3 Mac1 [2]; [6]): 0.1
- Modeled? (SARS-CoV-2 NSP3 Mac1 [2]; [10]): TRUE
- Refined occupancy (SARS-CoV-2 NSP3 Mac1 [2]; crystal soaking of Mac1): 20
- HIT* (SARS-CoV-2 NSP3 Mac1 [2]): Y
- IC50 (SARS-CoV-2 NSP3 Mac1 [4]; HTRF): 25.8 µM
- Ki (SARS-CoV-2 NSP3 Mac1 [4]; [9]): 22.4 µM
- DSF max dTma (SARS-CoV-2 NSP3 Mac1 [1]): 2.71 °C
- Spearman est (compound concentration vs apparent Tm) (SARS-CoV-2 NSP3 Mac1 [3]): 0.96
- DSF max dTma (SARS-CoV-2 NSP3 Mac1 [3]): 2.71 ˚C

Compound: O=C(O)C1(F)CN(c2cc(Nc3ccccc3)ncn2)CC12CCC2 (centres unmarked) [LL1_0025]
- 1-BDC (SARS-CoV-2 NSP3 Mac1 [2]; [11]): 0.12
- 1-BDC (PanDDA) (SARS-CoV-2 NSP3 Mac1 [2]; [6]): 0.14
- PanDDA hit? (SARS-CoV-2 NSP3 Mac1 [2]; [12]): TRUE
- Modeled? (SARS-CoV-2 NSP3 Mac1 [2]; [10]): TRUE
- Refined occupancy (SARS-CoV-2 NSP3 Mac1 [2]; crystal soaking of Mac1): 28
- HIT* (SARS-CoV-2 NSP3 Mac1 [2]): Y
- IC50 (SARS-CoV-2 NSP3 Mac1 [4]; HTRF): 121 µM
- Ki (SARS-CoV-2 NSP3 Mac1 [4]; [9]): 106 µM
- DSF max dTma (SARS-CoV-2 NSP3 Mac1 [1]): 1.36 °C
- Spearman est (compound concentration vs apparent Tm) (SARS-CoV-2 NSP3 Mac1 [3]): 0.71
- DSF max dTma (SARS-CoV-2 NSP3 Mac1 [3]): 1.36 ˚C

Compound: CS(=O)(=O)C1CCCN(c2ncnc3[nH]c4cc(F)ccc4c23)C1 (centres unmarked) [LL1_0027]
- 1-BDC (SARS-CoV-2 NSP3 Mac1 [2]; [11]): 0.09
- 1-BDC (SARS-CoV-2 NSP3 Mac1 [2]; [6]): 0.06
- PanDDA hit? (SARS-CoV-2 NSP3 Mac1 [2]; [12]): TRUE
- Modeled? (SARS-CoV-2 NSP3 Mac1 [2]; [7]): TRUE
- Refined occupancy (SARS-CoV-2 NSP3 Mac1 [2]; crystal soaking of Mac1): 12
- HIT* (SARS-CoV-2 NSP3 Mac1 [2]): Y
- DSF max dTma (SARS-CoV-2 NSP3 Mac1 [1]): 0.8 °C
- Spearman est (compound concentration vs apparent Tm) (SARS-CoV-2 NSP3 Mac1 [3]): 0.41
- DSF max dTma (SARS-CoV-2 NSP3 Mac1 [3]): 0.8 ˚C

Compound: O=C(O)C1(F)CN(c2ncnc3[nH]c4cc(F)ccc4c23)CC1C1CC1 (centres unmarked) [LL123_0032]
- HIT* (SARS-CoV-2 NSP3 Mac1 [5]): Y
- 1-BDC (SARS-CoV-2 NSP3 Mac1 [2]; PanDDA 1-BDC of the event, compound stock 100 mM, Echo dispense volume 80 nl): 0.14
- 1-BDC (SARS-CoV-2 NSP3 Mac1 [2]; PanDDA event map 1-BDC, crystal soak, Compound_concentration 100 mM, PanDDA run dmso_34 or nohits_35 per dataset): 0.1
- 1-BDC (PanDDA) (SARS-CoV-2 NSP3 Mac1 [2]; [6]): 0.12
- 1-BDC (SARS-CoV-2 NSP3 Mac1 [2]; PanDDA event map, crystal soak, Compound_concentration 100 mM, Echo_dispense_volume 40 nl): 0.12
- PanDDA hit? (SARS-CoV-2 NSP3 Mac1 [2]; crystal soak, Compound_concentration 100 mM, Echo dispense 40 nl, PanDDA run dmso_34 or nohits_35 per dataset): TRUE
- PanDDA hit? (SARS-CoV-2 NSP3 Mac1 [2]; crystal soak, Compound_concentration 100 mM, Echo_dispense_volume 40 nl, PanDDA run (background map) dmso_34, nohits_35 or nohits_62): TRUE
- PanDDA hit? (SARS-CoV-2 NSP3 Mac1 [2]; crystal soak, compound stock 100 mM, Echo dispense volume 80 nl): TRUE
- Modeled? (SARS-CoV-2 NSP3 Mac1 [2]; ligand modeled, crystal soak, Compound_concentration 100 mM, Echo_dispense_volume 40 nl): TRUE
- Refined occupancy (SARS-CoV-2 NSP3 Mac1 [2]; crystal soaking of Mac1): 24
- IC50 (SARS-CoV-2 NSP3 Mac1 [4]; HTRF ADPr-conjugated peptide displacement): 41.8 µM
- Ki (SARS-CoV-2 NSP3 Mac1 [4]): 36.4 µM

Compound: O=C1CCCC1Nc1ncnc2[nH]c3cc(F)ccc3c12 (centres unmarked) [LRH-0008]
- binding / activity against MacroD2 (MacroD2; compound at 160 µM): neither neutral compounds LRH-0003 and LRH-0008 had measurable binding
- binding / activity against TARG1 (TARG1; compound at 160 µM): neither neutral compounds LRH-0003 and LRH-0008 had measurable binding
- HIT* (SARS-CoV-2 NSP3 Mac1 [5]): Y
- IC50 (SARS-CoV-2 NSP3 Mac1 [4]; [8]): 13.4 µM
- Ki (SARS-CoV-2 NSP3 Mac1 [4]): 11.7 µM

Compound: CC1CC(C(=O)O)N1C(=O)c1cc(O)nc2ccc(F)cc12.O=C(O)C(F)(F)F (centres unmarked) [R0658, REAL300007260658]
- DSF max dTma (SARS-CoV-2 NSP3 Mac1 [1]): 0.37 °C

Compound: CC1C(C(=O)O)CCCN1S(=O)(=O)c1c[nH]c2ncc(Cl)cc12 (centres unmarked) [R3575, REAL300016493575]
- DSF max dTma (SARS-CoV-2 NSP3 Mac1 [1]): 0.15 °C
